In ChEMBL document CHEMBL5058645, “Data for DCP probe JNJ-6204” (2022):

How the values were obtained:
[1] = target: BMP-2-inducible protein kinase (Homo sapiens) (UniProt Q9NSY1); assay: BIKe(h) Kinase panel; conditions: Compound concentration 1.0 uM, tested as the 2H-labelled form
[2] = target: Cyclin-dependent kinase 6 (Homo sapiens) (UniProt Q00534); assay: CDK6/cyclinD3(h) Kinase panel; conditions: Compound concentration 1.0 uM, tested as the 2H-labelled form
[3] = target: Cyclin-dependent kinase-like 1 (Homo sapiens) (UniProt Q00532); assay: CDKL1(h) Kinase panel; conditions: Compound concentration 1.0 uM, tested as the 2H-labelled form
[4] = target: Casein kinase I isoform gamma-2 (Homo sapiens) (UniProt P78368); assay: CK1gamma2(h) Kinase panel; conditions: Compound concentration 1.0 uM, tested as the 2H-labelled form
[5] = target: Casein kinase I isoform gamma-3 (Homo sapiens) (UniProt Q9Y6M4); assay: CK1gamma3(h) Kinase panel; conditions: Compound concentration 1.0 uM, tested as the 2H-labelled form
[6] = target: Tyrosine-protein kinase CSK (Homo sapiens) (UniProt P41240); assay: CSK(h) Kinase panel; conditions: Compound concentration 1.0 uM, tested as the 2H-labelled form
[7] = target: Death-associated protein kinase 1 (Homo sapiens) (UniProt P53355); assay: DAPK1(h) Kinase panel; conditions: Compound concentration 1.0 uM, tested as the 2H-labelled form
[8] = target: Epithelial discoidin domain-containing receptor 1 (Homo sapiens) (UniProt Q08345); assay: DDR1(h) Kinase panel; conditions: Compound concentration 1.0 uM, tested as the 2H-labelled form
[9] = target: Dual specificity tyrosine-phosphorylation-regulated kinase 2 (Homo sapiens) (UniProt Q92630); assay: DYRK2(h) Kinase panel; conditions: Compound concentration 1.0 uM, tested as the 2H-labelled form
[10] = target: Ephrin type-B receptor 2 (Homo sapiens) (UniProt P29323); assay: EphB2(h) Kinase panel; conditions: Compound concentration 1.0 uM, tested as the 2H-labelled form
[11] = target: Receptor tyrosine-protein kinase erbB-2 (Homo sapiens) (UniProt P04626); assay: ErbB2(h) Kinase panel; conditions: Compound concentration 1.0 uM, tested as the 2H-labelled form
[12] = target: Tyrosine-protein kinase Fyn (Homo sapiens) (UniProt P06241); assay: Fyn(h) Kinase panel; conditions: Compound concentration 1.0 uM, tested as the 2H-labelled form
[13] = target: Tyrosine-protein kinase JAK1 (Homo sapiens) (UniProt P23458); assay: JAK1(h) Kinase panel; conditions: Compound concentration 1.0 uM, tested as the 2H-labelled form
[14] = target: LIM domain kinase 1 (Homo sapiens) (UniProt P53667); assay: LIMK1(h) Kinase panel; conditions: Compound concentration 1.0 uM, tested as the 2H-labelled form
[15] = target: Mitogen-activated protein kinase 1 (Homo sapiens) (UniProt P28482); assay: MAPK1(h) Kinase panel; conditions: Compound concentration 1.0 uM, tested as the 2H-labelled form
[16] = target: MAP kinase-activated protein kinase 2 (Homo sapiens) (UniProt P49137); assay: MAPKAP-K2(h) Kinase panel; conditions: Compound concentration 1.0 uM, tested as the 2H-labelled form
[17] = target: MAP/microtubule affinity-regulating kinase 3 (Homo sapiens) (UniProt P27448); assay: MARK3(h) Kinase panel; conditions: Compound concentration 1.0 uM, tested as the 2H-labelled form
[18] = target: Mitogen-activated protein kinase kinase kinase 2 (Homo sapiens) (UniProt Q9Y2U5); assay: MEKK2(h) Kinase panel; conditions: Compound concentration 1.0 uM, tested as the 2H-labelled form
[19] = target: Misshapen-like kinase 1 (Homo sapiens) (UniProt Q8N4C8); assay: MINK(h) Kinase panel; conditions: Compound concentration 1.0 uM, tested as the 2H-labelled form
[20] = target: Mitogen-activated protein kinase kinase kinase 11 (Homo sapiens) (UniProt Q16584); assay: MLK3(h) Kinase panel; conditions: Compound concentration 1.0 uM, tested as the 2H-labelled form
[21] = target: Mitogen-activated protein kinase kinase kinase 21 (Homo sapiens) (UniProt Q5TCX8); assay: MLK4(h) Kinase panel; conditions: Compound concentration 1.0 uM, tested as the 2H-labelled form
[22] = target: MAPK/MAK/MRK overlapping kinase (Homo sapiens) (UniProt Q9UQ07); assay: MOK(h) Kinase panel; conditions: Compound concentration 1.0 uM, tested as the 2H-labelled form
[23] = target: Serine/threonine-protein kinase MRCK beta (Homo sapiens) (UniProt Q9Y5S2); assay: MRCKbeta(h) Kinase panel; conditions: Compound concentration 1.0 uM, tested as the 2H-labelled form
[24] = target: Serine/threonine-protein kinase Nek9 (Homo sapiens) (UniProt Q8TD19); assay: NEK9(h) Kinase panel; conditions: Compound concentration 1.0 uM, tested as the 2H-labelled form
[25] = target: NUAK family SNF1-like kinase 2 (Homo sapiens) (UniProt Q9H093); assay: NUAK2(h) Kinase panel; conditions: Compound concentration 1.0 uM, tested as the 2H-labelled form
[26] = target: Serine/threonine-protein kinase PAK 6 (Homo sapiens) (UniProt Q9NQU5); assay: PAK6(h) Kinase panel; conditions: Compound concentration 1.0 uM, tested as the 2H-labelled form
[27] = target: Eukaryotic translation initiation factor 2-alpha kinase 3 (Homo sapiens) (UniProt Q9NZJ5); assay: PEK(h) Kinase panel; conditions: Compound concentration 1.0 uM, tested as the 2H-labelled form
[28] = target: [Pyruvate dehydrogenase (acetyl-transferring)] kinase isozyme 4, mitochondrial (Homo sapiens) (UniProt Q16654); assay: PDHK4(h) Kinase panel; conditions: Compound concentration 1.0 uM, tested as the 2H-labelled form
[29] = target: Protein kinase C beta type (Homo sapiens) (UniProt P05771); assay: PKCbetaII (h) Kinase panel; conditions: Compound concentration 1.0 uM, tested as the 2H-labelled form
[30] = target: Proto-oncogene tyrosine-protein kinase ROS (Homo sapiens) (UniProt P08922); assay: Ros(h) Kinase panel; conditions: Compound concentration 1.0 uM, tested as the 2H-labelled form
[31] = target: Mitogen-activated protein kinase 14 (Homo sapiens, UniProt Q16539); assay: SAPK2a(h) Kinase panel; conditions: Compound concentration 1.0 uM, tested as the 2H-labelled form
Mitogen-activated protein kinase 14, sequence (Q16539 whole entry): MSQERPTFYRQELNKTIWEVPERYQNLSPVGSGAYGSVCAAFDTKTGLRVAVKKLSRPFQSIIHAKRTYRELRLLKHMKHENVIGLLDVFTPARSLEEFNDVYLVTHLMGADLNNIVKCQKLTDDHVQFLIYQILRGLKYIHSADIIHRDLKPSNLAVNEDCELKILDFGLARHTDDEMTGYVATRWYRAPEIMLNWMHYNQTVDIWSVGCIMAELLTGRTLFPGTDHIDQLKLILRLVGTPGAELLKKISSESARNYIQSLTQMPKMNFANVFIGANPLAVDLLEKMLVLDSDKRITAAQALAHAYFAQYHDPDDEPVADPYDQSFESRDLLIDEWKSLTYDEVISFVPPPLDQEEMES

[32] = target: Serine/threonine-protein kinase Sgk2 (Homo sapiens) (UniProt Q9HBY8); assay: SGK2(h) Kinase panel; conditions: Compound concentration 1.0 uM, tested as the 2H-labelled form
[33] = target: Serine/threonine-protein kinase 16 (Homo sapiens) (UniProt O75716); assay: STK16(h) Kinase panel; conditions: Compound concentration 1.0 uM, tested as the 2H-labelled form
Serine/threonine-protein kinase 16 (Homo sapiens), sequence (O75716 whole entry): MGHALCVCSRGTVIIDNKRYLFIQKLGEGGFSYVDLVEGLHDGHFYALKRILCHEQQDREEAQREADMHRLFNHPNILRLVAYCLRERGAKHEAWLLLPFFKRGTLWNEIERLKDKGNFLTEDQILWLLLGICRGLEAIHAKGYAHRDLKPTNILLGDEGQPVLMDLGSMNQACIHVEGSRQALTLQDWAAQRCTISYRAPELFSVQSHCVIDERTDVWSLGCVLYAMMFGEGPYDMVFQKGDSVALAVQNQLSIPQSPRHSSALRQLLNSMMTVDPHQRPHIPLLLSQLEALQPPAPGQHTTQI

[34] = target: Serine/threonine-protein kinase 33 (Homo sapiens) (UniProt Q9BYT3); assay: STK33(h) Kinase panel; conditions: Compound concentration 1.0 uM, tested as the 2H-labelled form
[35] = target: Tyrosine-protein kinase Tec (Homo sapiens) (UniProt P42680); assay: Tec(h) activated Kinase panel; conditions: Compound concentration 1.0 uM, tested as the 2H-labelled form
[36] = target: Serine/threonine-protein kinase tousled-like 1 (Homo sapiens) (UniProt Q9UKI8); assay: TLK1(h) Kinase panel; conditions: Compound concentration 1.0 uM, tested as the 2H-labelled form
[37] = target: Serine/threonine-protein kinase tousled-like 2 (Homo sapiens) (UniProt Q86UE8); assay: TLK2(h) Kinase panel; conditions: Compound concentration 1.0 uM, tested as the 2H-labelled form
[38] = target: Tribbles homolog 2 (Homo sapiens) (UniProt Q92519); assay: TRB2(h) Kinase panel; conditions: Compound concentration 1.0 uM, tested as the 2H-labelled form
[39] = target: Tau-tubulin kinase 1 (Homo sapiens) (UniProt Q5TCY1); assay: TTBK1(h) Kinase panel; conditions: Compound concentration 1.0 uM, tested as the 2H-labelled form
[40] = target: Serine/threonine-protein kinase WNK1 (Homo sapiens) (UniProt Q9H4A3); assay: WNK1(h) Kinase panel; conditions: Compound concentration 1.0 uM, tested as the 2H-labelled form
[41] = target: Serine/threonine-protein kinase WNK2 (Homo sapiens) (UniProt Q9Y3S1); assay: WNK2(h) Kinase panel; conditions: Compound concentration 1.0 uM, tested as the 2H-labelled form
Serine/threonine-protein kinase WNK2 (Homo sapiens), sequence (Q9Y3S1 whole entry): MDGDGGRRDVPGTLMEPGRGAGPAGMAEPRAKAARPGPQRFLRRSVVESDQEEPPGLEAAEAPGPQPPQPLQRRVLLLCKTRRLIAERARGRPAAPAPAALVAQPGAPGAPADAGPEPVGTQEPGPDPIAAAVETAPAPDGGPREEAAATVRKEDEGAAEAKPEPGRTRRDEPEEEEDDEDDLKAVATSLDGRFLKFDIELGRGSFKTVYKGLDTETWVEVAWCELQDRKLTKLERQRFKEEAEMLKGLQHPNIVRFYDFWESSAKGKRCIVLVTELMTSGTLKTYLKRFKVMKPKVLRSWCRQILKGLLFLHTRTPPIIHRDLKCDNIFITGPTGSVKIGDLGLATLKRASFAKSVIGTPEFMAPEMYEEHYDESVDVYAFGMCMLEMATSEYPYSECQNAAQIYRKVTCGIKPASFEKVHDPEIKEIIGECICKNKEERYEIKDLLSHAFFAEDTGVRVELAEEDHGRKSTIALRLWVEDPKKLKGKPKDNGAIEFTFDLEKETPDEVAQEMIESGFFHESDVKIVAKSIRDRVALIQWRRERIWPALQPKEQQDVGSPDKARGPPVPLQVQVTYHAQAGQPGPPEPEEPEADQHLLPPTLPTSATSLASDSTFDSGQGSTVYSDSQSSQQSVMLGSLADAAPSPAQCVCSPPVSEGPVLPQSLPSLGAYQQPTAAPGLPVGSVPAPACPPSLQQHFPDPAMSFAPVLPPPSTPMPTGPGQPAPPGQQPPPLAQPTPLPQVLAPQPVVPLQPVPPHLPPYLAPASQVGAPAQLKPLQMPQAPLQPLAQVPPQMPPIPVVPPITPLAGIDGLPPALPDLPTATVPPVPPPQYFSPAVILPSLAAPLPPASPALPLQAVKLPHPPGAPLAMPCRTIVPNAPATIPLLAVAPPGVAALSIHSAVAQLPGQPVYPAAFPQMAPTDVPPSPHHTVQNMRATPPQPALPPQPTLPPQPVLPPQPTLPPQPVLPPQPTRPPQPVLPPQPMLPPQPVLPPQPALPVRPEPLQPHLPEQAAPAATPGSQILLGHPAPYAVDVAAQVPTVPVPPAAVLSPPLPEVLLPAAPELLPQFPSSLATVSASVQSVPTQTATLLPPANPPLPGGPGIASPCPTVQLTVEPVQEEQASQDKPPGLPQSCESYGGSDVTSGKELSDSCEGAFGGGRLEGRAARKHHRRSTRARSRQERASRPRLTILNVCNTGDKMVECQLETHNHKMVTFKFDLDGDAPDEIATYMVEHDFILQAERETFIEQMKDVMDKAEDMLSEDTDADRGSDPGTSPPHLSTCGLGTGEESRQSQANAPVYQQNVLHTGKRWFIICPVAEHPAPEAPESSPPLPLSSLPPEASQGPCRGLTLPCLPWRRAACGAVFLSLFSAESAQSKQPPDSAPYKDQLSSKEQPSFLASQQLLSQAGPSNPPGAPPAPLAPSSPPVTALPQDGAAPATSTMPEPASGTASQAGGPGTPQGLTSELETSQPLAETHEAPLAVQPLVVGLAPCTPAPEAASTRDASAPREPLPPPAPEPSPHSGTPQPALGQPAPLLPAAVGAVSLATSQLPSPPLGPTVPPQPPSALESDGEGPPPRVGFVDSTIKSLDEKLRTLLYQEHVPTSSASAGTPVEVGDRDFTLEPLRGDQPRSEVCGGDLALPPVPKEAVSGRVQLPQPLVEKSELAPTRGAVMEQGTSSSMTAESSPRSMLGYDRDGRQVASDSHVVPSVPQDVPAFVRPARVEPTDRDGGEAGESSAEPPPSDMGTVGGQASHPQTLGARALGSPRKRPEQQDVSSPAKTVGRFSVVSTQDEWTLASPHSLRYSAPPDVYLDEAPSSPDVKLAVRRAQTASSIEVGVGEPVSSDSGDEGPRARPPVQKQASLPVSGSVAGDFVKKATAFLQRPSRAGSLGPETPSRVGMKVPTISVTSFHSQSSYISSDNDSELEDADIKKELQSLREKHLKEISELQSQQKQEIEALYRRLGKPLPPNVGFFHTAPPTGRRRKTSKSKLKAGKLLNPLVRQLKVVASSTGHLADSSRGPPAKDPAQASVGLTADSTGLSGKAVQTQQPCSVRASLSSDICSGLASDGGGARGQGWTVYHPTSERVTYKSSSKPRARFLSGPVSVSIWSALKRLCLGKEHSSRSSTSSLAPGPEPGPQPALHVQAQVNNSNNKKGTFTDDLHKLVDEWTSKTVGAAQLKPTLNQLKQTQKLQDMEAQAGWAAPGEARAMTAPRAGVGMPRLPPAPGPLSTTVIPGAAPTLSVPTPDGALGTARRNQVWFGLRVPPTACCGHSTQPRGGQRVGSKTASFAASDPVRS

[42] = target: Serine/threonine-protein kinase WNK3 (Homo sapiens) (UniProt Q9BYP7); assay: WNK3(h) Kinase panel; conditions: Compound concentration 1.0 uM, tested as the 2H-labelled form
[43] = target: Serine/threonine-protein kinase WNK4 (Homo sapiens) (UniProt Q96J92); assay: WNK4(h) Kinase panel; conditions: Compound concentration 1.0 uM, tested as the 2H-labelled form
[44] = target: Phosphatidylinositol 4,5-bisphosphate 3-kinase catalytic subunit gamma isoform (Homo sapiens) (UniProt P48736); assay: PI3 Kinase (p120g)(h) Kinase panel; conditions: Compound concentration 1.0 uM, tested as the 2H-labelled form
[45] = target: Phosphatidylinositol 4-phosphate 3-kinase C2 domain-containing subunit alpha (Homo sapiens) (UniProt O00443); assay: PI3KC2a(h) Kinase panel; conditions: Compound concentration 1.0 uM, tested as the 2H-labelled form
Phosphatidylinositol 4-phosphate 3-kinase C2 domain-containing subunit alpha (Homo sapiens), sequence (O00443 whole entry, the tested form may be a part): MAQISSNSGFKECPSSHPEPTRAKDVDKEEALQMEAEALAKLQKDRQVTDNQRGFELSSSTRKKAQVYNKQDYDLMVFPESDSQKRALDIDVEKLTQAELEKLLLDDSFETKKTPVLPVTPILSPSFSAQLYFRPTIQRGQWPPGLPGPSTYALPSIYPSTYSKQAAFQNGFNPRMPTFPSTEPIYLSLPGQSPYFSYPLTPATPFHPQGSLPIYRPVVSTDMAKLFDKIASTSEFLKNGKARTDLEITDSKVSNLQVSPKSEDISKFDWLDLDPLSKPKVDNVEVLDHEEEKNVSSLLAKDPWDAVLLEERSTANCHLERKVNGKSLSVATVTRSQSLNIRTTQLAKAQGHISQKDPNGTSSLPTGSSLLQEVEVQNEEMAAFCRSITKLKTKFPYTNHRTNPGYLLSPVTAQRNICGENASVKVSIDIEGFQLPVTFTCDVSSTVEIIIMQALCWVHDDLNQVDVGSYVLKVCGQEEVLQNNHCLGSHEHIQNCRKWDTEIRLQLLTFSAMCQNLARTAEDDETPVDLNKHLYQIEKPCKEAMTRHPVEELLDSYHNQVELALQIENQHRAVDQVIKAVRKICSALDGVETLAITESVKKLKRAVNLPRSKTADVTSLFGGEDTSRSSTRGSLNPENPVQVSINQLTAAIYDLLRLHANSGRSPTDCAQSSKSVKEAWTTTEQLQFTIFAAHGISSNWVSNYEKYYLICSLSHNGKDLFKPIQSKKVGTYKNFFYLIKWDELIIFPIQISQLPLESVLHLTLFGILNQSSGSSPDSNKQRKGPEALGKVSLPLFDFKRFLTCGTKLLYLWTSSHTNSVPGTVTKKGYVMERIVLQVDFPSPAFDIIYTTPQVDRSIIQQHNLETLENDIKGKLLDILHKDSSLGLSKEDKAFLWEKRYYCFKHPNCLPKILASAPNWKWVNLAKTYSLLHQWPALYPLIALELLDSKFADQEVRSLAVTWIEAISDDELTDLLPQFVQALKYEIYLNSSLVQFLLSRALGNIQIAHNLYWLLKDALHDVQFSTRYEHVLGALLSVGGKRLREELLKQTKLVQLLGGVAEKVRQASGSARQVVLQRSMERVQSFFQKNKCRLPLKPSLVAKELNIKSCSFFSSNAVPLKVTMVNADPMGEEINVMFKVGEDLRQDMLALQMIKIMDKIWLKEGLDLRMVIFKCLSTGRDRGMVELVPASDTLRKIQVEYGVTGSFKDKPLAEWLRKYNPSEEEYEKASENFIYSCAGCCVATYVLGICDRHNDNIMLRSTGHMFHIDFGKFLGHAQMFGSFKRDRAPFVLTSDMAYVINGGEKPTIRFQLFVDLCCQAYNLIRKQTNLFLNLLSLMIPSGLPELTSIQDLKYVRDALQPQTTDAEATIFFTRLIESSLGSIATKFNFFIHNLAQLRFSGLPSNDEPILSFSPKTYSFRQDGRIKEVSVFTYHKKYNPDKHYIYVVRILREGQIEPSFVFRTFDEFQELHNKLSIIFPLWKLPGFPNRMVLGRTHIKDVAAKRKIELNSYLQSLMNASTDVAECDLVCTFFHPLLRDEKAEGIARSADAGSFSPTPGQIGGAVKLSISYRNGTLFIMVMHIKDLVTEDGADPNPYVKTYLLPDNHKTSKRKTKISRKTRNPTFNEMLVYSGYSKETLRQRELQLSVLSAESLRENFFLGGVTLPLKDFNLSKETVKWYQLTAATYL

[46] = target: Histamine H2 receptor (Homo sapiens) (UniProt P25021); conditions: Compound concentration 10.0 uM, tested as the 2H-labelled form
[47] = target: Alpha-1A adrenergic receptor (Homo sapiens) (UniProt P35348); conditions: Compound concentration 10.0 uM, tested as the 2H-labelled form
[48] = target: Alpha-2A adrenergic receptor (Homo sapiens) (UniProt P08913); conditions: Compound concentration 10.0 uM, tested as the 2H-labelled form
[49] = target: Muscarinic acetylcholine receptor M2 (Homo sapiens) (UniProt P08172); conditions: Compound concentration 10.0 uM, tested as the 2H-labelled form
Muscarinic acetylcholine receptor M2 (Homo sapiens), sequence (P08172 whole entry, canonical isoform): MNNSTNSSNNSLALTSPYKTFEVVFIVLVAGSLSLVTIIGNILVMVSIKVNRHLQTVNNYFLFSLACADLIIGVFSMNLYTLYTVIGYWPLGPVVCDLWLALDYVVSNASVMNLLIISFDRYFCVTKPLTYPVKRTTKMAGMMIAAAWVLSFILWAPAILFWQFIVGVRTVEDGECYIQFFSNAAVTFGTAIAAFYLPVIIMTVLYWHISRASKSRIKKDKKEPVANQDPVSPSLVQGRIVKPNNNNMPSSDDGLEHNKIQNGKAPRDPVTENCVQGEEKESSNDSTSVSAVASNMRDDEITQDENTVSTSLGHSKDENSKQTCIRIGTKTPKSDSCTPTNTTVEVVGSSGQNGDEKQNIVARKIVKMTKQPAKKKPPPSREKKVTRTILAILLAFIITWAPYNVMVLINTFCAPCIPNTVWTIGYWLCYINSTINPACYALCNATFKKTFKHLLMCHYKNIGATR

[50] = target: Casein kinase I isoform delta (Homo sapiens, UniProt P48730); conditions: Compound concentration 1.0 uM
[51] = target: Phosphorylase b kinase gamma catalytic chain, testis/liver isoform (Homo sapiens) (UniProt P15735); assay: PhKgamma2(h) Kinase panel; conditions: Compound concentration 1.0 uM, tested as the 2H-labelled form

Measured: inhibition

CC1(C)Cn2nc(-c3ccc(F)cn3)c(-c3ccnc4[nH]ncc34)c2CO1
inactive: [1] -8% | [2] -7% | [3] 11% | [4] -1% | [5] -2% | [6] -3% | [7] 10% | [8] 11% | [9] 0% | [10] 3% | [11] 9% | [12] 20% | [13] -2% | [14] -9% | [15] 20% | [16] -1% | [17] -2% | [18] 5% | [19] 2% | [20] 5% | [21] 20% | [22] -9% | [23] 2% | [24] 6% | [25] -1% | [26] 5% | [27] 11% | [28] -7% | [29] -3% | [30] -2% | [31] 12% | [32] 9% | [33] 8% | [34] 5% | [35] 29% | [36] 6% | [37] 12% | [38] -2% | [39] 19% | [40] 7% | [41] 8% | [42] -2% | [43] 10% | [44] 2% | [45] -2% | [46] -1.3% | [47] 0.58% | [48] 15.4% | [49] -0.4% | [50] 105% | [51] -9%
